Test results taken from the supplement of paper PMC4862054.

Columns and labels:
MCF-10A = conditions: 72 h
Description: (§1)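 Drug sensitivity and resistance testing (DSRT) of breast cancer cell lines in 384-well plates, 5 concentrations in 10-fold dilutions over a compound-specific 10,000-fold range. After 72 h, cytotoxicity was read by CellTox Green fluorescence and viability by CellTiter-Glo luminescence (multiplexed), normalised to DMSO and benzethonium chloride controls. EC50 is the inflection point of the fitted dose-response curve (bottom asymptote free, so it can be relative for partial curves) and is censored at the highest tested concentration. Rows with DSS 0 (no meaningful response) were excluded.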

BT-474 [1] = assay: normalised response (% of control), CellTiter-Glo; higher = more viable cells (100 = DMSO, 0 = benzethonium chloride kill control); conditions: incubation time: 72 h
Summary of the method: (§2)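 Compound was dispensed into 384-well plates at 5 concentrations in 10-fold steps spanning a 10,000-fold range specific to that compound. Breast cancer cell lines were added as 20 µl suspension and left for 72 h before CellTox Green fluorescence (485/520 nm) and then CellTiter-Glo luminescence, read after 10 min at room temperature. Each reported value is the normalised signal at one concentration, with 0.1 % DMSO set at 100 and a positive kill control at 0 on each plate.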

CAL-120 = assay: as above; conditions: incubation time: 72 h
Summary of the method: as §2

CAL-148 = assay: as above; conditions: incubation time: 72 h
Summary of the method: as §2

CAL-51 = assay: as above; conditions: incubation time: 72 h
Summary of the method: as §2

CAL-85-1 [2] = assay: as above; conditions: incubation time: 72 h
Summary of the method: as §2

DU-4475 = assay: as above; conditions: incubation time: 72 h
Summary of the method: as §2

HCC1937 = assay: as above; conditions: incubation time: 72 h
Summary of the method: as §2

HDQ-P1 = assay: as above; conditions: incubation time: 72 h
Summary of the method: as §2

Hs578T = assay: as above; conditions: incubation time: 72 h
Summary of the method: as §2

MDA-MB-231 = assay: as above; conditions: incubation time: 72 h
Summary of the method: as §2

MDA-MB-453 = assay: as above; conditions: incubation time: 72 h
Summary of the method: as §2

MDA-MB-468 = assay: as above; conditions: incubation time: 72 h
Summary of the method: as §2

BT-474 [3] = conditions: 72 h
Summary of the method: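 Breast cancer cell lines in 20 µl suspension were seeded onto 384-well plates pre-loaded with compound dissolved in 5 µl medium, then incubated 72 h. For viability, 2.5 µl CellTiter-Blue was added for 2 h at 37 °C and fluorescence read at 560/590 nm. Each plate was normalised to vehicle and a positive kill control and checked by Z'-factor. EC50 comes from the fitted percent-inhibition dose-response curve, censored at the highest concentration; rows with zero drug sensitivity score were dropped.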

CAL-85-1 [4] = conditions: 72 h
Description: as §1

Row | Compound | EC50, CellTox Green (MCF-10A) | normalised response (BT-474 [1]) | normalised response (CAL-120) | normalised response (CAL-148) | normalised response (CAL-51) | normalised response (CAL-85-1 [2]) | normalised response (DU-4475) | normalised response (HCC1937) | normalised response (HDQ-P1) | normalised response (Hs578T) | normalised response (MDA-MB-231) | normalised response (MDA-MB-453) | normalised response (MDA-MB-468) | EC50, CellTiter-Blue viability (BT-474 [3]) | EC50, CellTox Green (CAL-85-1 [4])
1 | Nc1nccc(-c2c(-c3ccc(F)cc3)ncn2C2CCCCC2)n1 | 4.81 µM | – | – | – | – | – | – | – | – | – | – | – | – | – | –
2 | COc1ncc(-c2ccc3nccc(-c4ccnnc4)c3c2)cc1NS(=O)(=O)c1ccc(F)cc1F (100 nM) | – | 52.7% | 45.6% | 42.5% | 29.5% | 31.8% | 78.1% | 54.6% | 25.5% | 39% | 55% | 20.1% | 37.9% | – | –
3 | C[C@@]1(C(=O)Nc2ccc(F)nc2)CCCN1c1nc(Nc2cc(C3CC3)n[nH]2)c2cccn2n1 (1000 nM) | – | 62.8% | 59.3% | 84.9% | 62.5% | 57.6% | 80.4% | 86.9% | 46.7% | 86.5% | 62.4% | 115% | 21.4% | – | –
4 | COc1c(C)cnc(Cn2cnc3c(Cl)nc(N)nc32)c1C [BIIB021] (1000 nM) | – | 31.1% | 53.6% | 23.9% | 19% | 26.9% | 0.4% | 24.7% | 29.5% | 55.5% | 25.5% | 27.8% | 43.4% | – | –
5 | CC(C)C[C@H](NC(=O)[C@H](Cc1ccccc1)NC(=O)c1cnccn1)B(O)O [Bortezomib] (100 nM) | – | 1.56% | 10.4% | 22.6% | 1.1% | 1.51% | 13% | 59% | 3.18% | 0.6% | 0.34% | 29.7% | 0.63% | – | –
6 | CS(=O)(=O)OCCCCOS(C)(=O)=O [Busulfan] (10000 nM) | – | 93.7% | 94.9% | 102% | 109% | 98.2% | 107% | 99.6% | 98.3% | 109% | 102% | 115% | 109% | – | –
7 | C#Cc1cccc(Nc2ncnc3cc(OC)c(OCCCCCCC(=O)NO)cc23)c1 [CUDC-101] (1000 nM) | – | 72.9% | 74.2% | 60.3% | 68.4% | 6.55% | 64.1% | 63.6% | 70% | 73.9% | 39.1% | 13.5% | 18.8% | – | –
8 | COc1cccc2c1C(=O)c1c(O)c3c(c(O)c1C2=O)C[C@@](O)(C(C)=O)C[C@@H]3O[C@H]1C[C@H](N)[C@H](O)[C@H](C)O1 [Daunorubicin] (100 nM) | – | 82.5% | 93.1% | 64.8% | 46.2% | 97.5% | 86.9% | 98.2% | 91.8% | 92.6% | 88.7% | 139% | 54.9% | – | –
9 | CN1CCN(c2ccc3nc(-c4c(N)c5c(F)cccc5[nH]c4=O)[nH]c3c2)CC1 [Dovitinib] (1000 nM) | – | 95.1% | 92.1% | 94.9% | 115% | 117% | 101% | 94.7% | 102% | 101% | 101% | 92% | 93.7% | – | –
10 | O=c1[nH]c(=O)n([C@H]2C[C@H](O)[C@@H](CO)O2)cc1F [Floxuridine] (1000 nM) | – | 67.1% | 39.8% | 92.4% | 37.8% | 42.7% | 92.8% | 56.4% | 83.9% | 13.5% | 76.8% | 102% | 69.4% | – | –
11 | O=c1[nH]cc(F)c(=O)[nH]1 [Fluorouracil] (1000 nM) | – | 111% | 106% | 95.6% | 110% | 52.8% | 90.2% | 94.7% | 92.2% | 97.1% | 97.7% | 121% | 98.7% | – | –
12 | C[C@@H]1C=C2C(=O)O[C@@H]3CC[C@H](C1)[C@]23O [Galiellalactone] | – | – | – | – | – | – | – | – | – | – | – | – | – | 28.9 µM | 47.4 µM
13 | C[C@@H]1C=C2C(=O)O[C@@H]3CC[C@H](C1)[C@]23O [Galiellalactone] (5000 nM) | – | 99.3% | 103% | 110% | 71.9% | 96.2% | 102% | 98.4% | 100% | 111% | 114% | 105% | 82% | – | –
